Source: patent US20260327215A1, “ISOXAZOLIDINES AS RIPK1 INHIBITORS AND USE THEREOF” (GENZYME CORPORATION, priority 2022, published 2026)

Legend:
[1] = molecular target: T1, hRIPK1 (aa 1-375) fusion protein (Homo sapiens, UniProt Q13546); assay: ADP Glo assay: RIPK1 autophosphorylation (ATP to ADP conversion) inhibition; assay type: biochemical; conditions: 50 μM ATP; 30 min preincubation, 240 min incubation at room temperature; 1% DMSO
T1 construct: hRIPK1 (aa 1-375) fusion protein
T1 sequence (Q13546 1-375): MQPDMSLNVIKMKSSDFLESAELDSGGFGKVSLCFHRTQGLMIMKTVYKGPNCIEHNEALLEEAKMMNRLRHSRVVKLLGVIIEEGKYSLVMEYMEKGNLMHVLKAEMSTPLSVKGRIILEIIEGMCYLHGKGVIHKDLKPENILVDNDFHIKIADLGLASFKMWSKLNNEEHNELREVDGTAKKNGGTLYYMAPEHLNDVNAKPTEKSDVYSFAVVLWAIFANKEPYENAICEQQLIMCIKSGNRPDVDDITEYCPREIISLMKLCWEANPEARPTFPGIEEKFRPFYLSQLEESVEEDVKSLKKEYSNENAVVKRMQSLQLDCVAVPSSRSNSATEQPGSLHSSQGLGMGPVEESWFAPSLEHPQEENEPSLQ
Description: Evaluation of Receptor-Interacting Protein Kinase 1 Inhibition.
The catalytic activity of RIPK1 was measured by monitoring the conversion of Adenosine triphosphate (ATP) to Adenosine diphosphate (ADP) due to autophosphorylation using an ADP-Glo kinase kit (Promega, catalog no. V9104).
After another 240 minutes incubation at room temperature, 5 μl Promega ADP-Glo reagent I were added to quench the reaction and deplete unconsumed ATP. After an incubation period of 30 minutes, 10 μl Promega ADP-Glo detection reagent II were added resulting in conversion of ADP to ATP, which generates a light-reaction between luciferase and luciferin. Luminescence was quantified after 30 minutes with a Pherastar FS (BMG LABTECH, Ortenberg).
The adjustment was obtained by nonlinear regression using the Levenberg Marquardt algorithm.

[2] = test system: U937 cells; assay: U937 cell assay: inhibition of TNFa/zVAD-induced cell death (necroptosis), MTS viability; assay type: cell-based

Compound | IC50 [1] [nM] | IC50 [2] [nM]
COc1cc(N2CCC(C(=O)N3OCC[C@H]3c3cc(F)cc(C#N)c3)CC2)ncn1 [Example 4, (S)-3-fluoro-5-(2-(1-(6-methoxypyrimidin-4-yl)piperidine-4-carbonyl)isoxazolidin-3-yl)benzonitrile] | 34 | 80
COc1ncnc(N2CCC(C(=O)N3OCC[C@H]3c3cc(F)cc(C#N)c3)CC2)c1F [Example 5, 3-fluoro-5-[(3S)-2-[1-(5-fluoro-6-methoxy-pyrimidin-4-yl)piperidine-4-carbonyl]isoxazolidin-3-yl]benzonitrile] | – | 8
